Patent publication US4824862A, “3-phenyl-2-styrylpyrrolidines, preparation and use thereof” (BASF Aktiengesellschaft, priority 1987, dated 1989)

Tests used:
Type in all cases: biochemical
[1] = test system: Dopamine uptake (3H-dopamine, corpus striatum synaptosomes); test: Inhibition of dopamine uptake in rat brain synaptosomes (corpus striatum); settings: for IC50: rat corpus striatum synaptosomes, 3H-dopamine, 37° C., read-out: Inhibition of neurotransmitter uptake in synaptosomes, Dopamine IC 50
Text: (§1) The mode of action of a group of therapeutically frequently used antidepressants (for example tricyclic antidepressants) include the inhibition of the neuronal uptake of transmitter substances (norepinephrine, dopamine, serotonin). This property is utilized in biological test models to characterize potential antidepressants.
(§2) The following method was used: Inhibition of neurotransmitter uptake in rat brain synaptosomes
(§3) Hippocampus, corpus striatum and cortex of rat brains were dissected out and homogenized in 0.32M sucrose solution. Differential centrifugation gave synaptosomes which were suspended in buffer solution. Synaptosomes are capable of actively taking up added neurotransmitter substances (for example norepinephrine, dopamine, serotonin) from the surrounding medium. With the aid of uptake inhibitors it is possible to counteract this process to a degree which depends on the concentration. The synaptosomes were mixed with the test substances in various concentrations and then incubated at 37° C. with ^3 H-norepinephrine (hippocampus), ^3 H-dopamine (corpus striatum) and ^3 H-serotonin (cortex). The substrate concentration was about […]. The uptake was determined by dilution with ice-cold buffer solution; thereafter the synaptosomes were separated off by centrifugation, and the ^3 H activity was measured in the sediment. A blank value was determined by incubating at 0° C.
(§4) The median inhibitory concentration (IC 50) was calculated from the inhibitor values found for the various inhibitor concentrations by comparison with the blank test by linear regression following logit-log conversion.

[2] = test system: Norepinephrine uptake (3H-norepinephrine, hippocampus synaptosomes); test: Inhibition of norepinephrine uptake in rat brain synaptosomes (hippocampus); settings: for IC50: rat hippocampus synaptosomes, 3H-norepinephrine, 37° C., read-out: Inhibition of neurotransmitter uptake in synaptosomes, Norepinephrine IC 50
Text: as §1, §2, §3, §4

[3] = test system: Serotonin uptake (3H-serotonin, cortex synaptosomes); test: Inhibition of serotonin uptake in rat brain synaptosomes (cortex); settings: 37° C., read-out: Inhibition of neurotransmitter uptake in synaptosomes, Serotonin IC 50
Text: as §1, §2, §3, §4

SMILES: CCCN1CC[C@@H](c2ccccc2)[C@@H]1/C=C/c1ccccc1 (relative stereo) [Example 3 trans, trans-3-phenyl-2-trans-styryl-N-n-propylpyrrolidine]
- IC50 [1]: 400 nM
- IC50 [2]: 160 nM
- IC50 [3]: > 1000 nM

SMILES: CCCN1CC[C@@H](c2ccccc2)[C@H]1/C=C/c1ccccc1 (relative stereo) [Example 3 cis, cis-3-phenyl-2-trans-styryl-N-n-propylpyrrolidine]
- IC50 [3]: > 1000 nM

SMILES: CN1CC[C@@H](c2ccccc2)[C@H]1/C=C/c1ccccc1 (relative stereo) [Example 1 cis, cis-3-phenyl-2-trans-styryl-N-methylpyrrolidine]
- IC50 [1]: 120 nM
- IC50 [2]: 29 nM
- IC50 [3]: > 1000 nM

SMILES: CN1CC[C@@H](c2ccccc2)[C@@H]1/C=C/c1ccccc1 (relative stereo) [Example 1 trans, trans-3-phenyl-2-trans-styryl-N-methylpyrrolidine]
- IC50 [1]: 92 nM
- potency of inhibition of noradrenaline uptake compared with imipramine, in words [2]: appreciably exceeded by the compounds according to the invention
- IC50 [2]: 7.3 nM
- IC50 [3]: > 1000 nM

SMILES: CCN1CC[C@@H](c2ccccc2)[C@@H]1/C=C/c1ccccc1 (relative stereo) [Example 2 trans, trans-3-phenyl-2-trans-styryl-N-ethylpyrrolidine]
- IC50 [1]: 23 nM
- potency of inhibition of noradrenaline uptake compared with imipramine, in words [2]: appreciably exceeded by the compounds according to the invention
- IC50 [2]: 5.5 nM
- IC50 [3]: > 1000 nM

SMILES: CCN1CC[C@@H](c2ccccc2)[C@H]1/C=C/c1ccccc1 (relative stereo) [Example 2 cis, cis-3-phenyl-2-trans-styryl-N-ethylpyrrolidine]
- IC50 [1]: 180 nM
- IC50 [2]: 43 nM
- IC50 [3]: > 1000 nM

SMILES: CN(C)CCCN1c2ccccc2CCc2ccccc21 [Imipramine, reference compound]
- inhibition of dopamine uptake, in words ([1]; qualitative statement): not possessed by imipramine
- IC50 [1]: > 1000 nM
- IC50 [2]: 14 nM
- IC50 [3]: 130 nM
